Source: patent US20070049564A1 (Wyeth, priority 2005, published 2007)

Legend:
Assay in all cases: MIC, broth microdilution
E. coli GC 4559 = settings: Escherichia coli
S. pneumoniae+ GC 4465 = settings: Streptococcus pneumoniae
S. aureus GC 6335 = settings: Staphylococcus aureus
E. coli GC 2233 = settings: Escherichia coli
E. coli GC 2271 = settings: Escherichia coli
E. coli GC 1073 = settings: Escherichia coli
E. coli GC 2236 = settings: Escherichia coli
S. aureus GC 1131 = settings: Staphylococcus aureus
S. epidermidis GC 4935 = settings: Staphylococcus epidermidis
S. aureus GC 2216 = settings: Staphylococcus aureus
c. albicans GC 3066 = system: c. albicans GC 3066
E. faecium GC 4556 = settings: Enterococcus faecium
S. pyogenes GC 4563 = settings: Streptococcus pyogenes
E. coli GC 2235 = settings: Escherichia coli
E. coli GC 2270 = settings: Escherichia coli
E. coli GC 2234 = settings: Escherichia coli
S. aureus GC 1079 = settings: Staphylococcus aureus
P. aeruginosa GC 2214 = settings: Pseudomonas aeruginosa
E. faecalis GC 2242 = settings: Enterococcus faecalis

Measured: MIC

CN(C)c1cc(NC(=O)CN(C(=O)OCOC(=O)C2CCC2)C(C)(C)C)c(O)c2c1C[C@H]1C[C@H]3[C@H](N(C)C)C(O)=C(C(N)=O)C(=O)[C@@]3(O)C(O)=C1C2=O [Example 62, ({[(2-{[(5aR,6aS,7S,10aS)-9-(aminocarbonyl)-4,7-bis(dimethylamino)-1,8,10a,11-tetrahydroxy-10,12-dioxo-5,5a,6,6a,7,10,10a,12-octahydrotetracen-2-yl]amino}-2-oxoethyl)(tert-butyl)amino]carbonyl}oxy)methyl cyclobutanecarboxylate]
2 µg/mL: E. coli GC 2233; GC2233, pre-incubation in mouse serum | E. coli GC 2271; GC2271, pre-incubation in human serum | E. coli GC 2235; GC2235, pre-incubation in human serum | E. coli GC 2270; GC2270, pre-incubation in human serum | E. coli GC 2234; GC2234, pre-incubation in human serum
16 µg/mL: E. coli GC 4559; GC4559, pre-incubation in water | E. coli GC 1073; GC1073, pre-incubation in water | P. aeruginosa GC 2214; GC2214, pre-incubation in mouse serum
1 µg/mL: E. coli GC 4559; GC4559, pre-incubation in mouse serum | S. pneumoniae+ GC 4465; pre-incubation in mouse serum | S. aureus GC 6335; GC6335, pre-incubation in mouse serum | E. coli GC 2271; GC2271, pre-incubation in mouse serum | E. faecium GC 4556; GC4556, pre-incubation in human serum | E. faecium GC 4556; GC4556, pre-incubation in mouse serum | E. faecium GC 4556; GC4556, pre-incubation in water | E. coli GC 2234; GC2234, pre-incubation in mouse serum | S. aureus GC 1079; GC1079, pre-incubation in mouse serum
8 µg/mL: E. coli GC 4559; GC4559, pre-incubation in human serum | E. coli GC 2233; GC2233, pre-incubation in water | E. coli GC 2236; GC2236, pre-incubation in human serum | E. coli GC 2270; GC2270, pre-incubation in water | E. coli GC 2234; GC2234, pre-incubation in water
0.12 µg/mL: S. pyogenes GC 4563; GC4563, pre-incubation in human serum
0.5 µg/mL: S. pneumoniae+ GC 4465; pre-incubation in human serum | S. pneumoniae+ GC 4465; pre-incubation in water | S. aureus GC 6335; GC6335, pre-incubation in human serum | S. aureus GC 6335; GC6335, pre-incubation in water | E. coli GC 1073; GC1073, pre-incubation in mouse serum | E. coli GC 2236; GC2236, pre-incubation in mouse serum | S. aureus GC 1131; GC1131, pre-incubation in human serum | S. aureus GC 1131; GC1131, pre-incubation in mouse serum | S. aureus GC 1131; GC1131, pre-incubation in water | S. epidermidis GC 4935; GC4935, pre-incubation in human serum | S. epidermidis GC 4935; GC4935, pre-incubation in mouse serum | S. epidermidis GC 4935; GC4935, pre-incubation in water | S. aureus GC 2216; GC2216, pre-incubation in human serum | S. aureus GC 2216; GC2216, pre-incubation in mouse serum | S. aureus GC 2216; GC2216, pre-incubation in water | E. coli GC 2235; GC2235, pre-incubation in mouse serum | E. coli GC 2270; GC2270, pre-incubation in mouse serum | S. aureus GC 1079; GC1079, pre-incubation in human serum | S. aureus GC 1079; GC1079, pre-incubation in water | E. faecalis GC 2242; GC2242, pre-incubation in human serum | E. faecalis GC 2242; GC2242, pre-incubation in mouse serum | E. faecalis GC 2242; GC2242, pre-incubation in water
0.25 µg/mL: S. pyogenes GC 4563; GC4563, pre-incubation in mouse serum | S. pyogenes GC 4563; GC4563, pre-incubation in water
> 64 µg/mL: c. albicans GC 3066; Candida albicans, GC3066 | P. aeruginosa GC 2214; GC2214, pre-incubation in human serum | P. aeruginosa GC 2214; GC2214, pre-incubation in water
4 µg/mL: E. coli GC 2233; GC2233, pre-incubation in human serum | E. coli GC 2271; GC2271, pre-incubation in water | E. coli GC 1073; GC1073, pre-incubation in human serum | E. coli GC 2236; GC2236, pre-incubation in water | E. coli GC 2235; GC2235, pre-incubation in water
>64 UG/ML: c. albicans GC 3066; pre-incubation in human serum | c. albicans GC 3066; pre-incubation in mouse serum
